Results taken from ChEMBL document CHEMBL1122477, “Neuroleptic activity and dopamine-uptake inhibition in 1-piperazino-3-phenylindans” (J Med Chem, 1983).

Columns and labels:
[1] = molecular target: Sodium-dependent dopamine transporter (Rattus norvegicus, UniProt P23977)
Description: Effect on synaptosomal uptake inhibition of Dopamine transporter

Mus musculus [2] = species: Mus musculus
Description: (§1) Compound (administered intraperitoneally) was assessed for neuroleptic activity to antagonize methyl phenidate induced stereotypes in mice

[3] = molecular target: T1, Sodium-dependent serotonin transporter (Rattus norvegicus, UniProt P31652)
Mus musculus [4] = species: Mus musculus; assay: Assessed for thymoleptic activity by its ability to antagonize tetrabenazine ptosis in mice; format: functional
[5] = molecular target: Norepinephrine transporter (Rattus norvegicus, UniProt Q9WTR4)
Description: (§2) Effect on synaptosomal uptake inhibition of Noradrenaline (NA)

[6] = molecular target: T1, Sodium-dependent serotonin transporter; assay: Effect on synaptosomal uptake inhibition of 5-hydroxytryptamine (5-HT); format: functional
Rattus norvegicus [7] = species: Rattus norvegicus
Description: (§3) Ability to induce catalepsy in rats perorally, an effect normally related to clinical extrapyramidal side effects

Rattus norvegicus [8] = assay: Tested orally in rats for antagonism of stereotypies induced by amphetamine; format: functional
Rattus norvegicus [9] = species: Rattus norvegicus; assay: animal or person; settings: po
Description: as §3

Adrenergic receptor beta = Adrenergic receptor beta (Rattus norvegicus, UniProt P18090+P10608+P26255)
Description: as §2

Mus musculus [10] = species: Mus musculus; assay: animal or person; settings: ip
Description: as §1

Mus musculus [11] = species: Mus musculus; assay: Compound was assessed for thymoleptic activity by its ability to antagonize tetrabenazine ptosis in mice; format: functional
Rattus norvegicus [12] = assay: Compound was tested orally (po) in rats for its ability to induce catalepsy, an effect normally related to clinical extrapyramidal side effects;value ranges from 1.3-3.4; format: functional
Rattus norvegicus [13] = assay: Compound was tested orally (po) in rats for antagonism of stereotypies induced by amphetamine; value ranges from 2.5-4.7; format: functional
[14] = Rattus norvegicus, po, read-out: ED50

Norepinephrine transporter, sequence (Q9WTR4 whole entry): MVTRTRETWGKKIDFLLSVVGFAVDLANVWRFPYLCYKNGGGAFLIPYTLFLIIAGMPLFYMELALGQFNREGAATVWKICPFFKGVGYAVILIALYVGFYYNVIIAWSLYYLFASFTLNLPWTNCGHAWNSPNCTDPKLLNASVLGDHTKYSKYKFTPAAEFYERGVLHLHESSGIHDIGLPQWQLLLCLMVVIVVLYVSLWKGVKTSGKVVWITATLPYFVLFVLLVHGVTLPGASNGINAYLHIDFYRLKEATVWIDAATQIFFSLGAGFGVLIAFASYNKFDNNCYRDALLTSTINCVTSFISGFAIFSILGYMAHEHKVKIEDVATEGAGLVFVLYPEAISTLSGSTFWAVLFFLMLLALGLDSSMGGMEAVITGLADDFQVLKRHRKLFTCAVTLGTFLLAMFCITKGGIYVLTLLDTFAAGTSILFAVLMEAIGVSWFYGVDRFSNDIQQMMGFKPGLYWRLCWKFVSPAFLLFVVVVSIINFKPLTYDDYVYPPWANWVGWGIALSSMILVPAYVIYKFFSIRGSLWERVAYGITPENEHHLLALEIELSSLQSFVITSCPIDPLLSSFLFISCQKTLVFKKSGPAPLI
T1 sequence (P31652 whole entry): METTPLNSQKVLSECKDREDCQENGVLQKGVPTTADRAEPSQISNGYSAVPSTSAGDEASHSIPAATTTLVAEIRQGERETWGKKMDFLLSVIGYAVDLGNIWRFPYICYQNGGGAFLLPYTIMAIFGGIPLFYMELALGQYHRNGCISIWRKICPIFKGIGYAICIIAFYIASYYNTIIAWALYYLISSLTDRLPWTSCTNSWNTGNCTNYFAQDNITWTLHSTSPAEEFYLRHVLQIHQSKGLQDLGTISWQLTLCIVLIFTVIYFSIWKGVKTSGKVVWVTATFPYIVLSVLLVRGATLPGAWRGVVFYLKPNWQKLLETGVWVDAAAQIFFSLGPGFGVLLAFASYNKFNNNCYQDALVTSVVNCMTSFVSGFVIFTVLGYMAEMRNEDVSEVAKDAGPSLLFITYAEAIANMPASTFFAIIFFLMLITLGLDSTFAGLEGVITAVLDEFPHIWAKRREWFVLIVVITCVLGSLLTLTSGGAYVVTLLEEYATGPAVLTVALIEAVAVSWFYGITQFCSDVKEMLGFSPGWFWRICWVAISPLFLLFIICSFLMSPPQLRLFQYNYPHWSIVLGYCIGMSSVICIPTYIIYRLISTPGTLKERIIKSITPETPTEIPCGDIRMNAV
Sodium-dependent dopamine transporter, sequence (P23977 whole entry): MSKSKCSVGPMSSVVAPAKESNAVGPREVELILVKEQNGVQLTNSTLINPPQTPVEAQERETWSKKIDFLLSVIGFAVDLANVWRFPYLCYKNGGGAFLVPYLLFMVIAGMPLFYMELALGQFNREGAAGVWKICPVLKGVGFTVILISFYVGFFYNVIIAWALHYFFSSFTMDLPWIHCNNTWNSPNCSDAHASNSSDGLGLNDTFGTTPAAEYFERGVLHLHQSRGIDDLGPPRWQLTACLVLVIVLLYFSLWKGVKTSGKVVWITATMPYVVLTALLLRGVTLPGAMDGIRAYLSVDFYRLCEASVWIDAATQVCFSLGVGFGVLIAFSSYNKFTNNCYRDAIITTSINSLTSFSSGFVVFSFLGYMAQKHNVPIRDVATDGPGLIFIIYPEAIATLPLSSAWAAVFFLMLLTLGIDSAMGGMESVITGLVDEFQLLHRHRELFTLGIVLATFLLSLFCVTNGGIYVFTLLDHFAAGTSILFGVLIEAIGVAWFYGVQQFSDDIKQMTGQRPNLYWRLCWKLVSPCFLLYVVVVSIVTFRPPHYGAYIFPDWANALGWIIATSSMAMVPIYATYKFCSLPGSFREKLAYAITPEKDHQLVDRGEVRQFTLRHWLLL
Description for Dopamine receptor: Effect on synaptosomal uptake inhibition of Dopamine receptor

Row | IC50 [3] [nM] | IC50 (Dopamine receptor) [nM] | SMILES | ED50 (Mus musculus [2]) [µM/kg] | IC50 [5] [nM] | IC50 [6] [nM] | other results
1 | 400 | – | Cl.Cl.Fc1ccc(C2CC(N3CCN(C/C=C/c4ccccc4)CC3)c3cc(F)ccc32)cc1 (stereo in doubt; 64) | >79 | – | – | IC50 [1]: 210 nM
2 | – | 15 | OCCCN1CCN(C2CC(c3ccc(Cl)c(Cl)c3)c3ccccc32)CC1 (centres undefined) | – | 6.8 | 120 | ED50 (Mus musculus [4]): 12 µM/kg
3 | – | 2000 | Cl.Cl.OCCN1CCN(C2CC(c3ccc(Cl)cc3Cl)c3ccccc32)CC1 (cis isomer) | – | – | – | ED50 (Mus musculus [4]): >94 µM/kg
4 | – | 5.6 | Cl.Cl.OCCCN1CCN(C2CC(c3ccc(Cl)c(Cl)c3)c3ccccc32)CC1 (centres undefined) | – | 0.3 | 440 | ED50 (Mus musculus [4]): 71 µM/kg
5 | – | 12 | Cl.Cl.OCCN1CCN(C2CC(c3ccc(Cl)c(Cl)c3)c3ccccc32)CC1 (cis isomer) | – | 10 | 600 | ED50 (Mus musculus [4]; Mus musculus, read-out: ED50): 72 µmol/kg
6 | 6100 | – | CN1CCN(C2CC(c3ccc(F)cc3)c3ccc(F)cc32)CC1.Cl.Cl (stereo in doubt; 56) | >95 | – | – | IC50 [1]: 110 nM; ED50 (Rattus norvegicus [8]): >95 µM/kg
7 | 2300 | – | Cl.Cl.OCCN1CCN(C2CC(c3ccc(F)cc3)c3ccc(F)cc32)CC1 (centres undefined) | 7 | – | – | ED50 (Rattus norvegicus [9]): 184 µmol/kg; IC50 (Adrenergic receptor beta): 150 nM; ED50 (Rattus norvegicus [8]): 14 µM/kg
8 | – | 4500 | Cl.Cl.OCCN1CCN(C2CC(c3ccc(Cl)cc3Cl)c3ccccc32)CC1 (trans isomer) | – | – | – | ED50 (Mus musculus [4]; Mus musculus, read-out: ED50): > 86 µmol/kg
9 | 4000 | – | CN1CCN(C2CC(c3ccc(F)cc3)c3ccc(F)cc32)CC1.Cl.Cl (single isomer, unassigned; (+)) | 2.5 | – | – | IC50 [1]: 1800 nM; ED50 (Rattus norvegicus [7]): 41 µM/kg; ED50 (Rattus norvegicus [8]): 15 µM/kg
10 | 160 | – | Fc1ccc(C2CC(N3CCN(C/C=C/c4ccccc4)CC3)c3cc(F)ccc32)cc1 (stereo in doubt; 63) | – | – | – | IC50 [1]: 340 nM; ED50 (Mus musculus [10]): 57 µmol/kg
11 | – | 35 | Cl.Cl.Clc1ccc(C2CC(N3CCN(C/C=C/c4ccccc4)CC3)c3ccccc32)cc1Cl (cis isomer) | – | – | – | ED50 (Mus musculus [4]): >73 µM/kg
12 | 9700 | – | OCCN1CCN(C2CC(c3ccc(F)cc3)c3ccc(F)cc32)CC1 (centres undefined) | >112 | – | – | IC50 (Adrenergic receptor beta): 140 nM; ED50 (Rattus norvegicus [8]): >112 µM/kg
13 | – | 2.8 | Cl.Cl.OCCN1CCN(C2CC(c3ccc(Cl)c(Cl)c3)c3ccccc32)CC1 (trans isomer) | – | 8.2 | 210 | ED50 (Mus musculus [4]): 45 µM/kg
14 | 2000 | – | CN1CCN(C2CC(c3ccc(F)cc3)c3ccc(F)cc32)CC1.Cl.Cl (stereo in doubt; 53) | 11 | – | – | IC50 [1]: 180 nM; ED50 (Rattus norvegicus [7]): 202 µM/kg; ED50 (Rattus norvegicus [8]): 37 µM/kg
15 | 630 | – | CN1CCN(C2CC(c3ccc(F)cc3)c3ccc(F)cc32)CC1.Cl.Cl (stereo in doubt; 55) | 42 | – | – | IC50 [1]: 88 nM; ED50 (Rattus norvegicus [7]): >790 µM/kg; ED50 (Rattus norvegicus [8]): >200 µM/kg
16 | – | 100 | Cl.Cl.Clc1ccc(C2CC(N3CCN(C/C=C/c4ccccc4)CC3)c3ccccc32)cc1Cl (stereo in doubt; 104) | – | – | – | ED50 (Mus musculus [4]; Mus musculus, read-out: ED50): > 75 µmol/kg

More lines, now with the values behind:

Row | SMILES | IC50 [3] [nM] | IC50 (Dopamine receptor) [nM] | ED50 (Mus musculus [2]) [µM/kg] | IC50 [5] [nM] | IC50 [6] [nM] | other results
17 | Cl.Cl.OCC(O)CN1CCN(C2CC(c3ccc(F)cc3)c3ccc(F)cc32)CC1 (trans isomer) | – | – | 2.9 | – | – | ED50 (Rattus norvegicus [7]): >280 µM/kg; ED50 (Rattus norvegicus [8]; [14]): 33 µmol/kg
18 | CN(C)C[C@H]1C2CCC(CC2)[C@H]1c1ccc(Cl)c(Cl)c1 (relative stereo) | – | – | – | – | 13 | –
19 | CN1CCN(C2CC(c3ccc(Cl)c(Cl)c3)c3ccccc32)CC1.Cl.Cl (trans isomer) | – | 11 | – | 32 | 200 | ED50 (Mus musculus [4]): 48 µM/kg
20 | Cl.Cl.OCCCCN1CCN(C2CC(c3ccc(F)cc3)c3ccc(F)cc32)CC1 (trans isomer) | 610 | – | 6.5 | – | – | IC50 [1]: 25 nM; ED50 (Rattus norvegicus [9]): 47 µmol/kg; IC50 (Adrenergic receptor beta): 19 nM; ED50 (Rattus norvegicus [8]; [14]): 7.7 µmol/kg
21 | CN1CCN(C2CC(c3ccc(Cl)c(Cl)c3)c3ccccc32)CC1.Cl.Cl (single isomer, unassigned; 95) | – | 340 | – | 120 | 2500 | ED50 (Mus musculus [4]): >91 µM/kg
22 | OCC(O)CN1CCN(C2CC(c3ccc(F)cc3)c3ccc(F)cc32)CC1 (centres undefined) | – | – | >51 | – | – | ED50 (Rattus norvegicus [7]): >102 µM/kg
23 | Cl.Cl.OCCN1CCN(C2CC(c3ccc(F)cc3)c3ccc(C(F)(F)F)cc32)CC1 (cis isomer) | – | – | >80 | – | – | IC50 [1]: 93 nM; ED50 (Rattus norvegicus [7]): >166 µM/kg
24 | CN(C)C[C@@H]1C2CCC(CC2)[C@@H]1c1ccc(Cl)c(Cl)c1 (relative stereo) | – | – | – | 5.4 | 51 | ED50 (Mus musculus [11]): 43 µmol/kg
25 | OCCN1CCN(CC/C=C2/c3ccccc3Sc3ccc(C(F)(F)F)cc32)CC1 [Z-FLUPENTIXOL] | – | – | – | – | – | ED50 (Mus musculus [10]): 0.14 µmol/kg; ED50 (Rattus norvegicus [12]): 2.1 µmol/kg; ED50 (Rattus norvegicus [13]): 3.5 µmol/kg
26 | CN1Cc2c(N)cccc2C(c2ccccc2)C1 (centres undefined) [NOMIFENSINE] | – | 48 | – | 6.6 | – | –
27 | CN1CCN(C2CC(c3ccc(Cl)c(Cl)c3)c3ccccc32)CC1.Cl.Cl (stereo in doubt; 97) | – | 4.4 | – | 7.7 | 630 | ED50 (Mus musculus [4]): 100 µM/kg
28 | Cl.Cl.OCCCCN1CCN(C2CC(c3ccc(F)cc3)c3ccc(F)cc32)CC1 (cis isomer) | 1900 | – | 54 | – | – | IC50 [1]: 9 nM; IC50 (Adrenergic receptor beta): 30 nM
29 | OCCN1CCN([C@@H]2C[C@@H](c3ccccc3)c3ccc(C(F)(F)F)cc32)CC1 (relative stereo) | – | – | – | – | – | ED50 (Mus musculus [10]): 4.7 µmol/kg; ED50 (Rattus norvegicus [9]): 5.7 µmol/kg; ED50 (Rattus norvegicus [8]; [14]): 10.4 µmol/kg
30 | OCCN1CCN([C@@H]2C[C@@H](c3ccc(Cl)cc3)c3ccc(C(F)(F)F)cc32)CC1 (relative stereo) | – | – | – | – | – | ED50 (Mus musculus [10]): 40 µmol/kg; ED50 (Rattus norvegicus [9]): 29 µmol/kg; ED50 (Rattus norvegicus [8]; [14]): 22 µmol/kg
31 | COc1ccc2c(c1)C(N1CCN(CCO)CC1)CC2c1ccc(F)cc1 (trans isomer) | – | – | – | – | – | ED50 (Mus musculus [10]): 19 µmol/kg; ED50 (Rattus norvegicus [9]): 102 µmol/kg; ED50 (Rattus norvegicus [8]; [14]): 38 µmol/kg
32 | OCCN1CCN(C2CC(c3ccc(F)cc3)c3ccc(C(F)(F)F)cc32)CC1 (trans isomer) | 7000 | – | 0.07 | – | – | IC50 [1]: 520 nM; ED50 (Rattus norvegicus [7]): 0.27 µM/kg; IC50 (Adrenergic receptor beta): 660 nM; ED50 (Rattus norvegicus [8]; [14]): 0.22 µmol/kg
33 | CN1CCN(C2CC(c3ccc(Cl)c(Cl)c3)c3ccccc32)CC1.Cl.Cl (single isomer, unassigned; 96) | – | 10 | – | 7.8 | 230 | ED50 (Mus musculus [4]): 26 µM/kg
34 | CN1CCN(C2CC(c3ccc(Cl)c(Cl)c3)c3ccccc32)CC1.Cl.Cl (single isomer, unassigned; 98) | – | 1700 | – | 910 | 2300 | ED50 (Mus musculus [11]): > 89 µmol/kg
35 | CN1CCN(C2CC(c3ccc(Cl)c(Cl)c3)c3ccccc32)CC1.Cl.Cl (single isomer, unassigned; 99) | – | 2.3 | – | 2.5 | 530 | ED50 (Mus musculus [4]): 69 µM/kg
